Data taken from patent US6949548B2, “Combination therapy for the treatment of heart failure” (Orion Corporation, priority 2001, dated 2005).

System: heart failure patients
Assay: Effect of the combination on the mortality of heart failure patients
Format: in vivo, human
Procedure: Effect of the Combination on the Mortality of Heart Failure Patients
A 6-hour infusion of levosimendan using a bolus of 6, 12 or 24 μg/kg and subsequent infusion of 0.1, 0.2 or 0.4 μg/kg/min was given to heart failure patients with or without concomitant use of a beta-blocker. The 72-hour, 14-day and 180 day mortality was measured. It can be seen that the combination provided synergistic reduction in the mortality of the heart failure patients.

[1] = LS 6 + 0.1 (bolus 6 μg/kg, infusion 0.1 μg/kg/min, 6-hour), did not receive beta-blocker, N = 60
[2] = LS 6 + 0.1 (bolus 6 μg/kg, infusion 0.1 μg/kg/min, 6-hour), received beta-blocker, N = 43
[3] = LS 12 + 0.2 (bolus 12 μg/kg, infusion 0.2 μg/kg/min, 6-hour), did not receive beta-blocker, N = 62
[4] = LS 12 + 0.2 (bolus 12 μg/kg, infusion 0.2 μg/kg/min, 6-hour), received beta-blocker, N = 38
[5] = LS 24 + 0.2 (bolus 24 μg/kg, infusion 0.2 μg/kg/min, 6-hour), did not receive beta-blocker, N = 67
[6] = LS 24 + 0.2 (bolus 24 μg/kg, infusion 0.2 μg/kg/min, 6-hour), received beta-blocker, N = 32
[7] = LS 24 + 0.4 (bolus 24 μg/kg, infusion 0.4 μg/kg/min, 6-hour), did not receive beta-blocker, N = 57
[8] = LS 24 + 0.4 (bolus 24 μg/kg, infusion 0.4 μg/kg/min, 6-hour), received beta-blocker, N = 42

CC1CC(=O)NN=C1c1ccc(NN=C(C#N)C#N)cc1 (single isomer, unassigned; (-)) [LS, (−)-enantiomer of [[4-(1,4,5,6-tetrahydro-4-methyl-6-oxo-3-pyridazinyl)phenyl]hydrazono]propanedinitrile]
14-day mortality, % [1]: 15.0%
72-hour mortality, % [1]: 8.3%
180-day mortality, % [1]: 50.0%
14-day mortality, % [2]: 9.3%
72-hour mortality, % [2]: 2.3%
180-day mortality, % [2]: 30.2%
14-day mortality, % [3]: 8.1%
72-hour mortality, % [3]: 1.6%
180-day mortality, % [3]: 40.3%
14-day mortality, % [4]: 10.5%
72-hour mortality, % [4]: 5.3%
180-day mortality, % [4]: 26.3%
14-day mortality, % [5]: 14.9%
72-hour mortality, % [5]: 7.5%
180-day mortality, % [5]: 46.3%
14-day mortality, % [6]: 9.4%
72-hour mortality, % [6]: 0.0%
180-day mortality, % [6]: 37.5%
14-day mortality, % [7]: 15.8%
72-hour mortality, % [7]: 8.8%
180-day mortality, % [7]: 45.6%
14-day mortality, % [8]: 4.8%
72-hour mortality, % [8]: 0.0%
180-day mortality, % [8]: 23.8%
